# Test results as given in patent US11878965B2, “Inhibitors of peptidylarginine deiminases” (Gilead Sciences, Inc., priority 2020, dated 2024).
# Target: human PAD4 (Homo sapiens (Human), UniProt Q9UM07)
# Test: In Vitro PAD4 BAEE Biochemical Assay
# Conditions: human PAD4, BAEE substrate; 5 nM PAD4, 2 mM calcium chloride, 3 mM BAEE; geometric mean of multiple experiments
# Experimental: The PCR product was ligated into linearized pET-SUMO vector (Invitrogen, Carlsbad, CA), which is part of the Champion™ pET SUMO Protein Expression System. After sequence verification for the correct orientation, the pET-SUMO-hPAD4 expression plasmid was transformed into BL21(DE3) cells.
# E. Coli BL21(DE3) cells were inoculated in LB medium with kanamycin at 37° C. until A600 nm reached about 0.5. Protein expression was induced by addition of 0.5 mM IPTG (final) and continued overnight at 16° C. at 220 rpm.
# Cells were harvested by centrifugation at 5000 rpm for 10 minutes at 4° C. The pellet was resuspended in 300 ml lysis buffer (20 mM Tris-HCl, pH 8.0, 1 mM EDTA, 500 mM NaCl, 1 mM (tris(2-carboxyethyl)phosphine) (TCEP), 10% glycerol, and 1% Triton X100 and EDTA free protease inhibitor) and lysed by 3× passage through a microfluidizer (Microfluidics, Newton, MA) at 18,000 psi. The cell lysate was clarified by centrifugation at 30,000 rpm for 60 minutes at 4° C. The supernatant was applied to a 5 ml Ni-HP (GE HealthCare Cat #17524701) column preequilibrated in Ni-A buffer (20 mM Tris-HCl, pH 8.0, 20 mM Imidazole, 1 mM TCEP, 10% glycerol, and 400 mM NaCl). Bound protein was eluted with a 0-100% linear gradient of 100 mL Ni-B buffer (Ni A buffer+0.5 M Imidazole).
# The His-Sumo tag was cleaved using sumo protease (Thermo Fisher Cat #: 12588018) while dialyzing in buffer (20 mM Tris-HCl, pH 8.0, 1 mM EDTA, 500 mM NaCl, 1 mM TCEP, 10% glycerol). The protein was then reloaded onto a Ni-HP column for a reverse purification step and recovered in flow through fraction. The protein with His-Sumo tag removed was then polished using a 16/60 Superdex-200 gel filtration column with gel filtration buffer (20 mM Tris pH 8.0, NaCl 400 mM and 1 mM TCEP). The fractions containing the protein were pulled and frozen at −80° C.
# In Vitro PAD4 BAEE Biochemical Assay
# The enzymatic activity of human PAD4 was monitored in a biochemical assay in the presence or absence of compounds using the small peptidyl arginine mimic BAEE (Nα-Benzoyl-L-arginine ethyl ester hydrochloride) as substrate. PAD4 activity led to deimination of BAEE and release of ammonia. Levels of ammonia were monitored by using an amine coupling reaction and were indicative of PAD4 enzymatic activity.
# One hundred nanoliters of test compounds dissolved in DMSO at various concentrations were dispensed into a 384-well black OptiPlate using a Labcyte Echo instrument. Ten microliters of a solution of recombinant PAD4 and calcium chloride diluted in PAD4 assay buffer (50 mM MOPS [3-(N-morpholino) propanesulfonic acid], pH 7.6; 50 mM sodium chloride; 0.05% Tween-20; 2 mM dithiothreitol) was added to the compound-containing plate and was incubated for 30 minutes at 25° C. Ten microliters of a solution of BAEE (Sigma-Aldrich #B4500) diluted in PAD4 assay buffer was then added to start the reaction. Final concentrations were 5 nM PAD4, 2 mM calcium chloride, and 3 mM BAEE. The reaction mixture was incubated at 25° C. for 2 hours and was stopped with the addition of 10 microliters of a solution of 75 mM EDTA (Ethylenediaminetetraacetic acid) in PAD4 assay buffer. Thirty microliters of detection solution (5 mM o-phthalaldehyde, 50 mM MOPS [3-(N-morpholino) propanesulfonic acid], pH 7.6; 50 mM sodium chloride; 0.05% Tween-20; 5 mM dithiothreitol) was then added and the reaction was incubated for 1 hour at 25° C. The level of fluorescent thiol-substituted isoindole resulting from the reaction of ammonia, o-phthalaldehyde, and dithiothreitol was measured on an Envision plate reader (PerkinElmer) with 405 nm excitation and 535 nm emission.
# human PAD4, sequence (Q9UM07 2-663): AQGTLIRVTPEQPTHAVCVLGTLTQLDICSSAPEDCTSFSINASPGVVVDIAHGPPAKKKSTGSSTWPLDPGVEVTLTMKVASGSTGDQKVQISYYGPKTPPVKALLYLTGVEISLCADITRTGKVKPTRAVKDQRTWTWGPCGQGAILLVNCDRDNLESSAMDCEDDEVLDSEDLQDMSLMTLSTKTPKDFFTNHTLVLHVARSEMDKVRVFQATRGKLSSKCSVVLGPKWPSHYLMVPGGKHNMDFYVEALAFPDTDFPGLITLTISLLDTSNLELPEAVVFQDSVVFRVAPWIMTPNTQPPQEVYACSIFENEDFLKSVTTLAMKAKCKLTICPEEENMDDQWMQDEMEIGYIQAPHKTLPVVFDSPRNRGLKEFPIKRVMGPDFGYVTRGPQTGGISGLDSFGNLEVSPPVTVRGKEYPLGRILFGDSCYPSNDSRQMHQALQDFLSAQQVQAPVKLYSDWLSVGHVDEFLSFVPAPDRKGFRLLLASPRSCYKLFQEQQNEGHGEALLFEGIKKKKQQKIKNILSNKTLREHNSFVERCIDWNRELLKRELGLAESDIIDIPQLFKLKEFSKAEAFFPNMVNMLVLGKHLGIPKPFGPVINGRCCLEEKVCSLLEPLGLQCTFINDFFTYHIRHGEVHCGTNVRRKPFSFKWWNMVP
row,SMILES,IC50
1,"COc1cc(C(=O)N2CCC[C@@H](N)C2)cc2nc(-c3cc4ccc(N(CC(F)(F)F)S(C)(=O)=O)nc4n3CC3CC3)n(C)c12 [Example 16, (R)-N-(2-(5-(3-aminopiperidine-1-carbonyl)-7-methoxy-1-methyl-1H-benzo[d]imidazol-2-yl)-1-(cyclopropylmethyl)-1H-pyrrolo [2,3-b]pyridin-6-yl)-N-(2,2,2-trifluoroethyl) methanesulfonamide]",316 nM
2,"COc1cc(C(=O)N2CCC[C@@H](N)C2)cc2nc(-c3cc4ccc(N(C5CC5)S(C)(=O)=O)nc4n3CC3CC3)n(C)c12 [Example 17, (R)-N-(2-(5-(3-aminopiperidine-1-carbonyl)-7-methoxy-1-methyl-1H-benzo[d]imidazol-2-yl)-1-(cyclopropylmethyl)-1H-pyrrolo [2,3-b]pyridin-6-yl)-N-cyclopropylmethanesulfonamide]",88.5 nM
3,"COc1cc(C(=O)N2CCC[C@@H](N)C2)cc2nc(-c3cc4ccc(N(C(F)F)S(C)(=O)=O)nc4n3CC3CC3)n(C)c12 [Example 18, (R)-N-(2-(5-(3-aminopiperidine-1-carbonyl)-7-methoxy-1-methyl-1H-benzo[d]imidazol-2-yl)-1-(cyclopropylmethyl)-1H-pyrrolo[2,3-b]pyridin-6-yl)-N-(difluoromethyl) methanesulfonamide]",83 nM
4,"COc1cc(C(=O)N2CCC[C@@H](N)C2)cc2nc(-c3cc4ccc(N(CC(F)F)S(C)(=O)=O)nc4n3CC3CC3)n(C)c12 [Example 19, (R)-N-(2-(5-(3-aminopiperidine-1-carbonyl)-7-methoxy-1-methyl-1H-benzo[d]imidazol-2-yl)-1-(cyclopropylmethyl)-1H-pyrrolo [2,3-b]pyridin-6-yl)-N-(2,2-difluoroethyl) methanesulfonamide]",181 nM
5,"COc1cc(C(=O)N2CCC[C@@H](N)C2)cc2nc(-c3cc4ccc(N(CC5CC5)S(C)(=O)=O)nc4n3CC3CC3)n(C)c12 [Example 20, (R)-N-(2-(5-(3-aminopiperidine-1-carbonyl)-7-methoxy-1-methyl-1H-benzo[d]imidazol-2-yl)-1-(cyclopropylmethyl)-1H-pyrrolo [2,3-b]pyridin-6-yl)-N-(cyclopropylmethyl) methanesulfonamide]",50000 nM
6,"COc1cc(C(=O)N2CCC[C@@H](N)C2)cc2nc(-c3cc4ccc(N(CC5CCC5)S(C)(=O)=O)nc4n3CC3CC3)n(C)c12 [Example 21, (R)-N-(2-(5-(3-aminopiperidine-1-carbonyl)-7-methoxy-1-methyl-1H-benzo[d]imidazol-2-yl)-1-(cyclopropylmethyl)-1H-pyrrolo[2,3-b]pyridin-6-yl)-N-(cyclobutylmethyl) methanesulfonamide]",50000 nM
7,"COc1cc(C(=O)N2CCC[C@@H](N)C2)cc2nc(-c3cc4ccc(N(C)S(C)(=O)=O)nc4n3CC3CC3)n(CC3CC3)c12 [Example 23, (R)-N-(2-(5-(3-aminopiperidine-1-carbonyl)-1-(cyclopropylmethyl)-7-methoxy-1H-benzo[d]imidazol-2-yl)-1-(cyclopropylmethyl)-1H-pyrrolo[2,3-b]pyridin-6-yl)-N-methylmethanesulfonamide]",125 nM
8,"COc1cc(C(=O)N2CCC[C@@H](N)[C@H]2C)cc2nc(-c3cc4ccc(N(C)S(C)(=O)=O)nc4n3CC3CC3)n(CC3CC3)c12 [Example 24, N-(2-(5-((2R,3R)-3-amino-2-methylpiperidine-1-carbonyl)-1-(cyclopropylmethyl)-7-methoxy-1H-benzo[d]imidazol-2-yl)-1-(cyclopropylmethyl)-1H-pyrrolo [2,3-b]pyridin-6-yl)-N-methylmethanesulfonamide]",124 nM
9,"CCN(c1ccc2cc(-c3nc4cc(C(=O)N5CCC[C@@H](N)C5)cc(OC)c4n3C)n(CC3CC3)c2n1)S(=O)(=O)C1CC1 [Example 25, (R)-N-(2-(5-(3-aminopiperidine-1-carbonyl)-7-methoxy-1-methyl-1H-benzo[d]imidazol-2-yl)-1-(cyclopropylmethyl)-1H-pyrrolo [2,3-b]pyridin-6-yl)-N-ethylcyclopropanesulfonamide]",82 nM
10,"COc1cc(C(=O)N2CCC[C@@H](N)C2)cc2nc(-c3cc4ccc(N(C5CC5)S(=O)(=O)C5CC5)nc4n3CC3CC3)n(C)c12 [Example 26, (R)-N-(2-(5-(3-aminopiperidine-1-carbonyl)-7-methoxy-1-methyl-1H-benzo[d]imidazol-2-yl)-1-(cyclopropylmethyl)-1H-pyrrolo [2,3-b]pyridin-6-yl)-N-cyclopropylcyclo-propanesulfonamide]",106 nM
11,"COc1cc(C(=O)N2CCC[C@@H](N)C2)cc2nc(-c3cc4ccc(N(C(F)F)S(=O)(=O)C5CC5)nc4n3CC3CC3)n(C)c12 [Example 27, (R)-N-(2-(5-(3-aminopiperidine-1-carbonyl)-7-methoxy-1-methyl-1H-benzo[d]imidazol-2-yl)-1-(cyclopropylmethyl)-1H-pyrrolo [2,3-b]pyridin-6-yl)-N-(difluoromethyl) cyclopropanesulfonamide]",92.7 nM
12,"CCN(c1ccc2cc(-c3nc4cc(C(=O)N5CCC[C@@H](N)[C@H]5C)cc(OC)c4n3C)n(CC3CC3)c2n1)S(C)(=O)=O [Example 28, N-(2-(5-((2R,3R)-3-amino-2-methylpiperidine-1-carbonyl)-7-methoxy-1-methyl-1H-benzo[d]imidazol-2-yl)-1-(cyclopropylmethyl)-1H-pyrrolo [2,3-b]pyridin-6-yl)-N-ethylmethanesulfonamide]",98.6 nM
13,"CCN(c1ccc2cc(-c3nc4cc(C(=O)N5CC(N)CCC5C)cc(OC)c4n3C)n(CC3CC3)c2n1)S(C)(=O)=O (stereo not shown) [Example 29, N-(2-(5-(5-amino-2-methylpiperidine-1-carbonyl)-7-methoxy-1-methyl-1H-benzo[d]imidazol-2-yl)-1-(cyclopropylmethyl)-1H-pyrrolo [2,3-b]pyridin-6-yl)-N-ethylmethanesulfonamide]",173 nM
14,"CCN(c1ccc2cc(-c3nc4cc(C(=O)N5C[C@H](N)CC[C@@H]5C)cc(OC)c4n3C)n(CC3CC3)c2n1)S(C)(=O)=O [Example 30, N-(2-(5-((2S,5R)-5-amino-2-methylpiperidine-1-carbonyl)-7-methoxy-1-methyl-1H-benzo[d]imidazol-2-yl)-1-(cyclopropylmethyl)-1H-pyrrolo [2,3-b]pyridin-6-yl)-N-ethylmethanesulfonamide]",88.2 nM
15,"COc1cc(C(=O)N2CCC[C@@H](N)[C@H]2C)cc2nc(-c3cc4ccc(N(C5CC5)S(C)(=O)=O)nc4n3CC3CC3)n(C)c12 [Example 31, N-(2-(5-((2R,3R)-3-amino-2-methylpiperidine-1-carbonyl)-7-methoxy-1-methyl-1H-benzo[d]imidazol-2-yl)-1-(cyclopropylmethyl)-1H-pyrrolo [2,3-b]pyridin-6-yl)-N-cyclopropylmethanesulfonamide]",110 nM
16,"COc1cc(C(=O)N2CCC[C@@H](N)[C@H]2C)cc2nc(-c3cc4ccc(N(C(F)F)S(C)(=O)=O)nc4n3CC3CC3)n(C)c12 [Example 33, N-(2-(5-((2R,3R)-3-amino-2-methylpiperidine-1-carbonyl)-7-methoxy-1-methyl-1H-benzo[d]imidazol-2-yl)-1-(cyclopropylmethyl)-1H-pyrrolo [2,3-b]pyridin-6-yl)-N-(difluoromethyl) methanesulfonamide]",77.3 nM
